{"source": "patent US20250108036A1", "about": "“COMPOSITIONS FOR REMOVING SENESCENT CELLS AND USES THEREOF” (LIFECEUTIX CO., LTD., priority 2021, published 2025)", "key": {"[1]": {"system": "umbilical cord-derived mesenchymal stem cells", "assay": "death of senescent stem cells by LX-112", "type": "cell-based, human", "conditions": "LX-112 10 μM", "procedure": "In addition to somatic cells, the death of senescent cells by LX-112 was confirmed to be about 50% in stem cells (umbilical cord-derived mesenchymal stem cells, purchased from ATCC) at a concentration of 10 μM. From this, it was confirmed that LX-112 can effectively remove senescent cells by inducing their death."}, "[2]": {"system": "urea, creatinine, Agtr1a mRNA", "assay": "kidney damage markers in naturally aged mice (Example 7-8)", "type": "in vivo, C57BL6J mice", "conditions": "LX-112 70 mg/kg oral daily 21 days, aged untreated = 100%", "procedure": "After 22-month-old female C57BL6J mice (purchased from KRIBB Laboratory Animal Resource Center) were adapted to the experimental environment for one week, the aged mice were randomized into an experimental group and a control group. 8-week-old mice that were not aged were used as controls. LX-112 was mixed with 0.5% CMC-Na solution (purchased from Sigma) and administered orally at a concentration of 70 mg/kg daily for 21 days. The control group was administered only the solution in the same volume. After drug administration was completed, the method described in each Example below was performed.\nThe amounts of urea and creatinine, markers of kidney damage, in serum collected from mice were measured by spectrophotometry using a kit (purchased from BioAssay Systems and Sigma). Additionally, the amount of Agtr1a mRNA, a kidney damage marker, was measured by qRT-PCR as described in Example 7-2. […] The amount of each factor after inducing aging was calculated as 100% and compared with the amount of each factor after treatment with LX-112."}, "[3]": {"assay": "fatigue/weakness tests and body weight in doxorubicin-aged mice (Example 8-7)", "type": "in vivo, C57BL6J mice", "procedure": "(§1) After adapting 8-week-old male C57BL6J mice (purchased from KRIBB Laboratory Animal Resource Center) to the experimental environment for 1 week, doxorubicin, an anticancer drug, was administered intraperitoneally at a concentration of 10 mg/kg, and mice that were induced to age for more than 10 days were assigned to an experimental group and a control group. LX-112 was mixed with 0.5% CMC-Na solution (purchased from Sigma) and administered orally at a concentration of 70 mg/kg daily for 21 days. The control group was administered only the solution in the same volume. After drug administration was completed, the method described in each Example below was performed.\nIn the same way as Example 7-7, in order to analyze fatigue and weakness that occur as a side effect due to treatment with anticancer drugs in mice, activity evaluation (open field test), endurance evaluation (wire hanging test), and muscle strength and grip strength test (grip strength test) were performed. […] In Table 47, the amount of each evaluation after aging was induced by treatment with the anticancer drug was calculated as 100% and compared it with the amount of each evaluation after treatment with LX-112."}, "[4]": {"system": "urea, creatinine, Agtr1a mRNA", "assay": "kidney damage markers in doxorubicin-aged mice (Example 8-9)", "type": "in vivo, C57BL6J mice", "conditions": "LX-112 70 mg/kg oral daily 21 days, DOX without LX = 100%", "procedure": "as §1\nThe amounts of urea and creatinine, markers of kidney damage, in serum collected from mice were measured using spectrophotometry in the same manner as in Example 7-8. […] The amount of each factor after aging was induced by treatment with the anticancer drug was calculated as 100% and compared it with the amount of each factor after treatment with LX-112."}, "[5]": {"system": "senescent cancer (A549) cells", "assay": "survival of senescent A549 cancer cells treated with medium supernatant of compound-killed cancer cells (Example 14, Table 70)", "type": "cell-based, human", "procedure": "In the same way as Examples 12 and 13, senescence of cancer (A549) cells was induced by treatment with doxorubicin or the control group (DMSO), and the cells were cultured. […] In the same manner as in Example 13, the medium supernatants comprising secreted fluid from normally proliferating and senescent cancer cells was obtained. Normally proliferating and senescent-induced cancer cells were treated with the medium supernatants.\nFurthermore, other test compounds were used in the same manner in Example 12 above at high concentrations of 30 μM, 90 μM, and 270 μM, respectively, and the cultured medium supernatant comprising secreted fluid from aged cancer cells that were killed were obtained. As a result of measuring the degree of death of aged cancer cells, it was confirmed that aged cancer cells can be effectively removed, as shown in Example 12 and Table 65."}, "p16, MMP3, IL6": {"system": "p16, MMP3, IL6", "assay": "p16, MMP3, IL6 mRNA qRT-PCR in groin fat of obese mice given senescent cells killed by test compounds (Example 16, Table 72)", "type": "in vivo, C57BL6J mice", "conditions": "obese mice administered senescent cells whose death was induced by the test compound", "text": "To obtain preadipocytes, groin fat tissue was collected from an 8-week-old female C57BL6J mouse (purchased from KRIBB Laboratory Animal Resource Center). The fat tissue was cut into small pieces and treated with collagenase to decompose the fat tissue, then centrifuged to collect the stromal vascular fraction (SVF) containing preadipocytes. It was washed with a washing medium (HBSS, purchased from GenDEPOT; 3.5% Albumin Fraction V, purchased from GenDEPOT; 100 U/ml Penicillin & Streptomycin, purchased from Invitrogen), mixed again, and extracted by filtering through a 100 μm nylon mesh. The isolated preadipocytes were cultured in the designated medium (DMEM, purchased from GenDEPOT; 20% FBS, purchased from GenDEPOT; 100 U/ml Penicillin & Streptomycin, purchased from Invitrogen). In the same manner as Example 1, cells were treated with doxorubicin at a concentration of 250 nM for 24 hours and cultured for an additional 21 days to induce cell senescence. Cells were treated with doxorubicin at a concentration of 250 nM for 24 hours and cultured for an additional 21 days to induce cell senescence. By treating the test compounds in the same manner as in Example 13, it was confirmed using an optical microscope that the death of most senescent cells was induced. The killed preadipocytes were washed using PBS (purchased from Welgene) and then mixed with PBS at a concentration of 5×10^5 cells/200 μl. It was administered subcutaneously to 8-week-old female C57BL6J mice (purchased from KRIBB Laboratory Animal Resource Center). At 7 and 10 days after administration of the killed senescent cells, 2 million senescent preadipocytes were mixed in 200 μl of PBS and administered into the abdominal cavity of mice. After administration of killed senescent cells, obesity was induced in mice with a high-fat diet (DIO) for 8 weeks in the same manner as in Example 9-1. Afterwards, the mouse was sacrificed in the same manner as in Example 7-2, total RNA was extracted from the groin fat tissue, and qRT-PCR was performed and analyzed using the synthesized cDNA. […] The mRNA amount of p16, MMP3, and IL6 without administration of senescent cells whose death was induced by the test compounds was calculated as 100%, and the amount of p16, MMP3, and IL6 after administration of the senescent cells whose death was induced by the test compounds was compared with them. Furthermore, an open field test was performed to analyze aging-related frailty in mice using the same method as Example 7-7. […] The amount of activity evaluation without administration of senescent cells whose death was induced by the test compounds was calculated as 100% and compared it with the amount of activity evaluation after administration of senescent cells whose death was induced by the test compounds. […]"}}}
{"smiles": "O=c1c2ccccc2[se]n1CCn1[se]c2ccccc2c1=O", "note": "[LX-112, 1,2-[bis(1,2-benzisoselenazolone-3(2H)-ketone)]ethane]", "values": [{"measurement": "death of senescent cells", "setting": "[1]", "result": "about 50%"}, {"measurement": "Agtr1a mRNA (%)", "setting": "[2]; kidney damage marker", "result": "64 (±7) %"}, {"measurement": "Creatinine (%)", "setting": "[2]; serum", "result": "87 (±7.8) %"}, {"measurement": "Urea (%)", "setting": "[2]; serum", "result": "69 (±6) %"}, {"measurement": "Open Field Test Time in Center (%)", "setting": "[3]; Table 47, doxorubicin-aged mice, LX-112 70 mg/kg oral daily 21 days, DOX without LX = 100", "result": "129 (±15) %"}, {"measurement": "Mean Body Weight (g)", "setting": "[3]; mice, doxorubicin 10 mg/kg i.p. without or with LX-112 70 mg/kg oral daily 21 days", "result": "22.8 (±3.1) g"}, {"measurement": "Agtr1a mRNA (%)", "setting": "[4]", "result": "75 (±9) %"}, {"measurement": "Creatinine (%)", "setting": "[4]; serum", "result": "89 (±4) %"}, {"measurement": "Urea (%)", "setting": "[4]; serum", "result": "91.2 (±1.2) %"}]}
{"smiles": "COC(=O)c1ccc([C@H]2c3[nH]c4ccccc4c3C[C@H](C(=O)OC)N2C(=O)CCl)cc1", "note": "[LX-405]", "values": [{"measurement": "Survival (%)", "setting": "[5]; supernatant from No Cells", "result": "98.2 (±2.8) %"}, {"measurement": "Survival (%)", "setting": "[5]; supernatant from death-induced proliferating cells (LX-405 30 μM)", "result": "78.8 (±7.7) %"}, {"measurement": "Survival (%)", "setting": "[5]; supernatant from death-induced senescent cells (LX-405 30 μM)", "result": "72.5 (±5.7) %"}, {"measurement": "IL6 mRNA (%)", "setting": "p16, MMP3, IL6", "result": "68.7 (±9.1) %"}, {"measurement": "MMP3 mRNA (%)", "setting": "p16, MMP3, IL6", "result": "80.5 (±2.8) %"}, {"measurement": "p16 mRNA (%)", "setting": "p16, MMP3, IL6", "result": "72.4 (±3.9) %"}]}
